Results on 9 compounds are retold here after patent publication US9522881B2, “Hydroxyindole carboxylic acid based inhibitors for oncogenic Src homology-2 domain containing protein tyrosine phosphatase-2 (SHP2)” (Indiana University Research and Technology Corporation, priority 2013, dated 2016).

One test has as its target SHP2 (D2C) (Homo sapiens (Human), UniProt Q06124). Briefly: SHP2 (D2C) pNPP inhibition assay, hits of library 7′a-c. In kind it is biochemical. The note with it: for IC50: pNPP substrate, pH 7, 25° C., library 7′a / 7′c hits. The procedure: These three libraries were further screened at 10 μM for SHP2. […] Three pairs of hits bearing the same amine scaffold from library 7′a and 7′c were resynthesized and purified by HPLC. […] (Table 1).
In this Example, SHP2 (D2C) was used to transform into E. coli BL21/DE3 and grown in LB medium containing 50 μg/ml kanamycin at 37° C. to an OD600 of 0.4. Following the addition of IPTG to a final concentration of 20 μM, the culture was incubated at 20° C. with shaking for an additional 16 hours. The cells were harvested by centrifugation at 5000 rpm for 5 minutes at 4° C. The bacterial cell pellets were resuspended in 20 mM Tris, pH 7.9, 500 mM NaCl, 5 mM imidazole, and were lysed by passage through a French press cell at 1,200 psi twice. Cellular debris was removed by centrifugation at 16,000 rpm for 30 minutes at 4° C. The protein was purified from the supernatant using standard procedures of Ni-nitrilotriacetic acid-agarose (Qiagen) affinity purification. The protein eluted from Ni-NTA column was concentrated with an Amicon Ultra centrifugal filter device (Millipore) and the buffer was changed to 20 mM Tris, pH 7.5, 150 mM NaCl, 1 mM EDTA and 1 mM DTT. Protein concentration was determined using the Bradford dye binding assay (Bio-Rad) diluted according to the manufacturer's recommendations with bovine serum albumin as standard. The purified SHP 2 (D2C) were made to 30% glycerol and stored at −20° C.
Inhibition Study: The inhibition assays were performed at 25° C. in 50 mM 3,3-dimethylglutarate buffer, pH 7.0, containing 1 mM EDTA with an ionic strength of 0.15M adjusted by NaCl. The salicylic acid based library was screened in a 96-well format at 10 μM compound concentration. […] The reaction was quenched after 10 minutes by the addition of 50 μl of 5N NaOH, and then this reaction mixture was detected for absorbance at 405 nm by a Spectra MAX340 microplate spectrophotometer (Molecular Devices). IC50 values were calculated by fitting the absorbance at 405 nm versus inhibitor concentration to the following equation: AI/A0=IC50/(IC50+[I]) where AI is the absorbance at 405 nm of the sample in the presence of inhibitor; A0 is the absorbance at 405 nm in the absence of inhibitor; and [I] is the concentration of the inhibitor.

The next test has as its target SHP2 (Homo sapiens (Human), UniProt Q06124). Nature of the test: SHP2-catalyzed hydrolysis of p-nitrophenyl phosphate (pNPP). As to conditions: pNPP substrate, pH 7.0, 25° C. In kind it is biochemical. The procedure: Libraries 11a-d were screened at ˜5 μM for SHP2 inhibitors without further purification. The ability of the library components to inhibit the SHP2-catalyzed hydrolysis of p-nitrophenyl phosphate (pNPP) was evaluated at pH 7.0 and 25° C. More particularly, the phosphatase activity of SHP2 was assayed using p-nitrophenyl phosphate (pNPP) as a substrate at 25° C. in 50 mM 3,3-dimethylglutarate buffer, pH 7.0, containing 1 mM EDTA with an ionic strength of […] adjusted by NaCl. The libraries were screened in a 96-well format at 5 μM compound concentration. […] The nonenzymatic hydrolysis of pNPP was corrected by measuring the control without the addition of enzyme. The amount of product p-nitrophenol was determined from the absorbance at 405 nm detected by a Spectra MAX340 microplate spectrophotometer (Molecular Devices, Sunnyvale, Calif.) using a molar extinction coefficient of 18,000 M^−1 cm^−1. […] IC50 values for selected resynthesized and purified hits were calculated by fitting the absorbance at 405 nm versus inhibitor concentration to the following equation: AI/A0=IC50/(IC50+[I]) where AI is the absorbance at 405 nm of the sample in the presence of the inhibitor; A0 is the absorbance at 405 nm in the absence of inhibitor; and [I] is the concentration of the inhibitor.

Test [1] deals with EGF-induced Erk1/2 phosphorylation. Nature of the test: EGF-induced Erk1/2 phosphorylation in H1975 cells (immunoblot). In kind it is cell-based, human. As to conditions: H1975 cells, 2 μM. The method, then: (§1) For biochemical studies, H1975 cells were serum-starved overnight followed by treatment with vehicle or compound 11a-1 for 3 hours, and then either left unstimulated or stimulated with 5 ng/ml EGF (Sigma, St. Louis, Mo.) for 60 minutes. Lysates were then resolved by SDS-PAGE and the protein phosphorylation levels were detected by immunoblot analysis. Specifically, cells were lysed in lysis buffer (1.0% Nonidet P-40, 50 mM Tris-HCl (pH 7.4), 150 mM NaCl, 5 mM EDTA, 2 mM NaVO3, 10 mM NaF) plus a protease inhibitor mixture available from Roche (Basel, Switzerland) and centrifuged at 10,000 rpm for 5 minutes at 4° C. Supernatants were collected and protein concentration was determined using the BCA protein assay (ThermoFisher Scientific, Rockford, Ill.). Equal amount of protein extracts were mixed with gel loading buffer and separated on SDS-PAGE. After electrophoresis, the proteins were transferred onto nitrocellulose membranes and nonspecific binding was blocked with 5% nonfat dry milk in Tris-buffered saline containing 0.1% Tween-20 (TBS-T). Membranes were then probed with various antibodies overnight at 4° C. on a rocker. After incubation, membranes were washed with TBS-T and incubated with appropriate horseradish peroxidase (HRP)-conjugated secondary antibodies for 1 hour at room temperature. Finally, the proteins on the membranes were detected using SuperSignal West Dura Luminol/Enhancer solution (ThermoFisher Scientific, Rockford, Ill.) and membranes were analyzed using Bio-Rad ChemiDoc XRS Imaging System.

The subject of the next test is Paxillin (pY118). Nature of the test: Paxillin (pY118) phosphorylation in H1975 cells (immunoblot). In kind it is cell-based, human. The note with it: 2 μM. The procedure:
as §1

For test [2], the system named is 32D myeloid cells bearing KITD814V. Nature of the test: Proliferation (thymidine incorporation) of 32D myeloid cells bearing KITD814V. Format: cell-based. The method, then:
(§2) FIG. 8A is a graph depicting 32D myeloid cells bearing wild-type (WT) KIT or KITD814V that were starved of serum and growth factors for 6 hours and subjected to proliferation assay in the presence or absence of the indicated concentration of II-B08 or 11a-1 as analyzed in Example 6. Assay was performed in the presence of IL-3 (10 ng/mL) for cells bearing WT KIT and in the absence of growth factors for cells bearing oncogenic KITD814V. Bars denote the mean thymidine incorporation (CPM±SEM) consolidated from four independent experiments performed in triplicate. *p<0.05.
(§3) To further determine the efficacy of compound 11a-1, the growth of oncogenic KITD814V bearing 32D myeloid cells in the presence of II-B08 and 11a-1 were compared. Specifically, the wild-type (WT) KIT and KITD814V were inserted into the bicistronic retroviral vector, MIEG3, upstream of the internal ribosome entry site (IRES) and the enhanced green fluorescent protein (EGFP) gene as previously described in Mali et al., 2012. Retroviral supernatants for transduction of 32D myeloid cells and primary hematopoietic stem and progenitor cells were generated using Phoenix ecotropic packaging cell line transfected with retroviral vector plasmids using a calcium phosphate transfection kit (Invitrogen, Carlsbad, Calif.). Supernatants were collected 48 hours after transfection and filtered through 0.45 μm membranes. 32D myeloid cells were infected twice at 24-hour intervals with 2 mL high/titer virus supernatant in the presence of 10 ng/mL IL-3 and 8 μg/mL polybrene. Forty-eight hours after infection, 32D cells expressing WT KIT or KITD814V receptors were sorted to homogeneity based on EGFP expression and utilized to perform all of the experiments.

The subject of test [3] is 32D myeloid cells bearing wild-type (WT) KIT. Nature of the test: Proliferation (thymidine incorporation) of 32D myeloid cells bearing WT KIT. As to conditions: tested concentrations, with IL-3. Format: cell-based. The method, then: as §2
as §3, with “32D myeloid cells were infected twice at 24-hour intervals with 2 mL high/titer virus supernatant in the presence of 10 ng/mL IL-3 and 8 μg/mL polybrene. Forty-eight hours after infection, 32D cells expressing WT KIT or KITD814V receptors were sorted to homogeneity based on EGFP expression and utilized to perform all of the experiments.” left out

Test [4] relates to 32D myeloid cells bearing KITD814V. As to conditions: previously shown (Mali et al., 2012); cited from earlier work.
A further test deals with hematopoietic progenitor. The note with it: cited from earlier work.
The next test relates to leukemic mice. The note with it: together with PI3Kinase inhibitor LY294002, compared to either inhibitor alone; cited from earlier work.
In test [5] the test system is growth factor stimulated ERK1/2 activation. The note with it: cited from earlier work.

Molecules are shown by their SMILES. “Also recorded” adds a separate entry of the source. Where only a bound is given, the exact number is not on record here.

Chain of SHP2 (D2C) (Q06124 240-528): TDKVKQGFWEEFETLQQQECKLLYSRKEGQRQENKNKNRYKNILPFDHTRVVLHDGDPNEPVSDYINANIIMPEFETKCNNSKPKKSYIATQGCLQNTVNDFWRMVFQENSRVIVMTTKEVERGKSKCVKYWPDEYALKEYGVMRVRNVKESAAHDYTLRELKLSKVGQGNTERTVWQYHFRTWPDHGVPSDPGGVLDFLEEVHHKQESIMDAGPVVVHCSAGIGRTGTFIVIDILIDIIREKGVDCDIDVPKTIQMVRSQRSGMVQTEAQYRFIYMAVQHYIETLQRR
Chain of SHP2 (Q06124 whole entry, looked up): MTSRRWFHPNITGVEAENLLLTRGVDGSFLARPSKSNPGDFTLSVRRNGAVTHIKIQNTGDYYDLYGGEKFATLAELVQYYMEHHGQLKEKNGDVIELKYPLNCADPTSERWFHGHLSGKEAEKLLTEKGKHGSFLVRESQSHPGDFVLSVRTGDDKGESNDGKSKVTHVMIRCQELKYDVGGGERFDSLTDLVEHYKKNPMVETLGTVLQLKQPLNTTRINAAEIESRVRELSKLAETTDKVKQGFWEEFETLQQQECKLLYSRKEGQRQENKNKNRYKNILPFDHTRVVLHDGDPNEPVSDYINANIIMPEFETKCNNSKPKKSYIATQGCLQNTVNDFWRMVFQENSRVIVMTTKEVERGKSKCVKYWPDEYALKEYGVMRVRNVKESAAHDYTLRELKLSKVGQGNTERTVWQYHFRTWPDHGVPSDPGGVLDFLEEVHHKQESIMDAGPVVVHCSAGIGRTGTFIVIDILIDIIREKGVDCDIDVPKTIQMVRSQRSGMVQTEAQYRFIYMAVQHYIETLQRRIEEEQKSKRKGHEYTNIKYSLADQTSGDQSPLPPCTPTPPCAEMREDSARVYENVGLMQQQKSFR

`Cn1c(-c2ccc(C(=O)O)cc2)c(I)c2cc(C(=O)O)c(O)cc21` [7′c, 2-(4-carboxyphenyl)-6-hydroxy-3-iodo-1-methyl-1H-indole-5-carboxylic acid] displayed an IC50 against SHP2 (D2C) of 9.2 ± 0.5 µM.

At SHP2 (D2C), `Cn1c(CCCC(=O)NCc2ccc3c(c2)OCO3)c(I)c2cc(C(=O)O)c(O)cc21` [7′a-2, 2-(4-((benzo[d][1,3]dioxol-5-ylmethyl)amino)-4-oxobutyl)-6-hydroxy-3-iodo-1-methyl-1H-indole-5-carboxylic acid] returned an IC50 of 12.6 ± 2.8 µM.

For `Cn1c(CCCC(=O)Nc2cccc(OCc3ccccc3)c2)c(I)c2cc(C(=O)O)c(O)cc21` [7′a-1, 2-(4-((3-(benzyloxy)phenyl)amino)-4-oxobutyl)-6-hydroxy-3-iodo-1-methyl-1H-indole-5-carboxylic acid], at SHP2 (D2C), half-maximal inhibition (IC50) was put at 5 ± 0.3 µM.

The compound `Cn1c(-c2cccc(NC(=O)C(=O)O)c2)c(I)c2cc(C(=O)O)c(O)cc21` [10a, 2-(3-(carboxyformamido)phenyl)-6-hydroxy-3-iodo-1-methyl-1H-indole-5-carboxylic acid] gave an IC50 against SHP2 of 14.4 µM. Besides, in test [1], the “effect on Erk1/2 phosphorylation (SHP2 dependent signaling), in words” value is “no effect; also recorded: failed to block”. Moreover, the “effect on Paxillin phosphorylation, in words” value in the test with Paxillin (pY118) is “no effect”.

In the case of `Cn1c(CCCC(=O)Nc2ccc(OCc3ccccc3)c(Cl)c2)c(I)c2cc(C(=O)O)c(O)cc21` [7′a-3, 2-(4-((4-(benzyloxy)-3-chlorophenyl)amino)-4-oxobutyl)-6-hydroxy-3-iodo-1-methyl-1H-indole-5-carboxylic acid], on SHP2 (D2C), the IC50 is above 20 µM.

`Cn1c(-c2ccccc2)c(-c2cn(CCC(=O)Nc3ccc(-c4ccccc4)cc3)nn2)c2cc(C(=O)O)c(O)cc21` [IIB08]: the figures for the “ligand independent growth of KITD814V bearing 32D cells” value in test [2] (1 μM) and in [2] (5 μM) were “not at 1 μM concentration” and “significant suppression”, respectively. In test [3], the “growth of WT KIT bearing 32D cells” value is given as “no significant suppression”. Besides, in test [4], the “oncogenic KITD814V induced ligand independent growth” value is “suppressed”. Further, the hematopoietic progenitor proliferation entry with hematopoietic progenitor is listed as “blocked”. The “survival of leukemic mice” value in the test on leukemic mice is on record as “significantly prolonged the survival”. For the same compound, the “growth factor stimulated ERK1/2 activation” value in [5] is given as “blocked”.

Regarding `Cn1c(-c2ccc(C(=O)Nc3cccc(OCc4ccccc4)c3)cc2)c(I)c2cc(C(=O)O)c(O)cc21` [7′c-1, 2-(4-((3-(benzyloxy)phenyl)carbamoyl)phenyl)-6-hydroxy-3-iodo-1-methyl-1H-indole-5-carboxylic acid], on SHP2 (D2C), the IC50 was found to be 2.4 ± 0.1 µM.

`Cn1c(CCCC(=O)O)c(I)c2cc(C(=O)O)c(O)cc21` [7′a, 2-(3-carboxypropyl)-6-hydroxy-3-iodo-1-methyl-1H-indole-5-carboxylic acid] showed an IC50 on SHP2 (D2C) above 20 µM.

As to `Cn1c(-c2ccc(C(=O)Nc3ccc(OCc4ccccc4)c(Cl)c3)cc2)c(I)c2cc(C(=O)O)c(O)cc21` [7′c-3, 2-(4-((4-(benzyloxy)-3-chlorophenyl)carbamoyl)phenyl)-6-hydroxy-3-iodo-1-methyl-1H-indole-5-carboxylic acid], at SHP2 (D2C), the “potency for SHP2 relative to 7′a-3” value was found to be 12 fold and the IC50 turned out to be 1.6 µM.
